{"source": "patent US20120122991A1", "about": "“METHOD FOR TREATING CANCER BY INCREASING AMP-ACTIVATED KINASE ACTIVITY” (Dana-Farber Cancer Institute, Inc., priority 2003, published 2012)", "test_system": "tuberin", "assay": "Tuberin mobility shift on SDS-PAGE in transfected HeLa cells", "assay_type": "cell-based, human", "excerpt": "FIG. 7A: In vitro kinase assay using FLAG-tagged tuberin as a substrate for LKB1-activated AMPK. Purified E. coli produced recombinant AMPK was activated by an in vitro kinase assay with wild-type LKB1, kinase-dead LKB1, or untransfected control immunoprecipitates then isolated and assayed for its ability to phosphorylate tuberin in vitro. FIG. 7B: Comparison of recombinant Akt-mediated tuberin phosphorylation in vitro to recombinant AMPK phosphorylation in vitro. Note that only AMPK-mediated phosphorylation induces a significant mobility shift in tuberin on SDS-PAGE. C: HeLa cells were co-transfected with FLAG-tagged tuberin, and empty vector or wild-type LKB1 and treated with 2 mM AICAR where indicated. Total cell lysates were then immunoblotted with anti-FLAG antisera to detect the introduced tuberin. Note the significant mobility shift induced by AICAR treatment of LKB1-expressing cells. […] FIG. 7D: HeLa cells were transfected with HA-tagged S6K1 and FLAG-tagged wild-type LKB1 along with empty vector, or dominant negative AMPK alpha1 (GST-tagged) or dominant negative AMPK alpha2 (myc tagged). Cells were treated with 2 mM AICAR for 2 h where indicated. HA-immunoprecipitates were immunoblotted with phospho-Thr389 S6K1 antisera to detect activated S6K1 and reprobed for total HA-S6K1 levels. […]", "data": [{"smiles": "NC(=O)c1ncn([C@@H]2O[C@H](CO)[C@@H](O)[C@H]2O)c1N", "note": "[AICAR, 5-aminoimidazole-4-carboxamide 1-β-D-ribofuranoside]", "values": [{"measurement": "tuberin mobility on SDS-PAGE", "setting": "HeLa cells expressing wild-type LKB1, 2 mM AICAR", "result": "significant reduction in tuberin mobility"}, {"measurement": "tuberin mobility on SDS-PAGE", "setting": "HeLa cells in the absence of LKB1 expression, AICAR", "result": "no effect on tuberin mobility"}]}]}
